Measurements taken from patent US11752156B2, “Compositions and methods for treating hyperproliferative skin disorders” (Athenex HK Innovative Limited, priority 2018, dated 2023).
Where “and” joins values, the source holds several entries; their conditions need not be identical. Equal entries are not always repeated. Where two headings read alike, the source gives them in different places.

Legend:
[1] = test system: CCD-1106 KERTr cells; assay: FITC annexin V / PI apoptosis assay by flow cytometry, 24 hours; format: cell-based, human; settings: for late apoptic cells: 24 hours
Experimental: In addition to growth inhibition, Inventors also investigated the effect of KX01 on apoptosis in keratinocytes. CCD-1106 KERTr cells (1×10^6) were seeded in 60 mm dishes and treated with test compounds at varying concentrations (e.g. KX01: 20 to 500 nM; calcipotriol 50 to 1000 nM) for 24 hours. Cell apoptosis was assessed by using a FITC annexin V apoptosis detection kit (BD Biosciences™) according to manufacturer's instruction. Briefly, cells were collected in 1× binding buffer and incubated with fluorescein isothiocyanate (FITC)-conjugated annexin V and propidium iodide (PI) for 15 minutes at room temperature in the dark, followed by flow cytometry analysis using a LSRFortessa™ flow cytometer (BD Biosciences™).

[2] = test system: human keratinocyte cell line; assay: inhibition of human keratinocyte growth, individual dose response, 72 hours, MTT assay; format: cell-based; settings: 72 hour exposure
Experimental: FIG. 4: Inhibition of human keratinocyte growth versus KX01 concentration (treatment duration: 72 hours; cell growth measured using the MTT assay). […] FIG. 5: Inhibition of human keratinocyte growth versus calcipotriol concentration (treatment duration: 72 hours; cell growth measured using the MTT assay). […] A human keratinocyte cell line was used in these studies.

[3] = test system: human keratinocytes in culture (cell line CCD-1106 KERTr); assay: cell viability / cell growth of human keratinocytes in culture, KX01, calcipotriol and fixed-ratio combinations; format: cell-based; parameters: cell growth (cell viability): unit not given here
Text: Typical data from studies of the effects of compound KX01 provided in combination with calcipotriol on growth of human keratinocytes in culture (cell line CCD-1106 KERTr) are shown in FIGS. 1 to 3 and Tables 1 to 6. FIG. 1 and Tables 1 and 2 show the degree of growth inhibition found in a typical study performed with KX01 and calcipotriol at a 1:5 ratio.

[4] = test system: CCD 1106 KERTr human keratinocyte cell line; assay: MTT cell proliferation assay, 72 hours, dark or blue light, keratinocytes; format: cell-based; settings: for inhibition at 0.005 µM / inhibition at 0.02 µM / inhibition at 0.08 µM / inhibition at 0.32 µM / inhibition at 1.28 µM: Homo sapiens, read-out: growth inhibition relative to untreated control
Experimental: The effects of combined treatment with KX01, a vitamin D derivative, and/or blue/UV light exposure were characterized using a cell proliferation assay. Cell proliferation was assessed by using an MTT assay. Cells were seeded in 96-well plate (3,000-5,000 cells per well) and treated with test compounds at varying concentrations (e.g. KX01: 5 to 80 nM; calcipotriol 5 to 1,280 nM) for 72 hours, either in the dark or exposed to blue light irradiation (for 2, 4, or 6 hours). To each well, 10 μl of 3-(4,5-dimethylthiazol-2-yl)-2,5-diphenyltetrazolium bromide (MTT) (RPI Corporation™) solution (5 mg/ml in PBS) was added and incubated at 37° C. for 3 hours. Next, 100 μl of 20% SDS was added to each well. After overnight incubation at 37° C., the absorbance in each well was measured at 570 nm in a microplate reader (Molecular Devices™). The cell growth curve and GI50s were calculate using GraphPad Prism™ 5 software. Tables 13 and 14 show the results of cell growth inhibition studies (expressed as a percentage relative to control cell growth) for treatment with either KX01 or calcipotriol in combination with exposure to blue light. […] The percentage of growth inhibition relative to untreated control is shown. […] The percentage of growth inhibition relative to untreated control is shown. Tables 15 to 18 show the effects of combined treatment with KX01, calcipotriol, and exposure to blue light at 0 hours, 2 hours, 4 hours, and 6 hours of light exposure (respectively). Values are expressed as the percentage of growth inhibition relative to cells grown under control conditions (0 hours blue light, [KX01]=0, [calcipotriol]=0). […] Results are shown below in Tables 27 to Table 30, which show results from 0, 2, 4, and 6 hours of blue light exposure (respectively). Values are expressed as the percentage of growth inhibition relative to cells grown under control conditions (0 hours blue light, [KX01]=0, [calcipotriol]=0).

C=C1/C(=C\C=C2/CCC[C@]3(C)[C@@H]([C@H](C)/C=C/[C@@H](O)C4CC4)CC[C@@H]23)C[C@@H](O)C[C@@H]1O [Calcipotriol, calcipotriol]
effect on apoptosis compared with control cells ([1]; 200 nm calcipotriol): not distinguishable from that of control cells receiving no drug treatment | late apoptic cells ([1]; calcipotriol 50 nM): 2.41% | late apoptic cells ([1]; calcipotriol 200 nM): 2.06% | late apoptic cells ([1]; calcipotriol 500 nM): 4.13% | late apoptic cells ([1]; calcipotriol 1,000 nM): 4.19% | IC50 [2]: 0.0955 µM | GI50 [3]: 0.31 µM and 0.339 µM | GI50 ([3]; Homo sapiens, CCD-1106): 0.265 µM | viability at 0.003 µM ([3]; Homo sapiens, CCD-1106, concentration 3 nM): 94% | viability at 0.009 µM ([3]; Homo sapiens, CCD-1106, concentration 9 nM): 89.9% | viability at 0.027 µM ([3]; Homo sapiens, CCD-1106, concentration 27 nM): 70.5% | viability at 0.081 µM ([3]; Homo sapiens, CCD-1106, concentration 81 nM): 49.4% | viability at 0.243 µM ([3]; Homo sapiens, CCD-1106, concentration 243 nM): 47.3% | viability at 0.729 µM ([3]; Homo sapiens, CCD-1106, concentration 729 nM): 47% | viability at 2.187 µM ([3]; Homo sapiens, CCD-1106, concentration 2187 nM): 44.8% | viability at 6.561 µM ([3]; Homo sapiens, CCD-1106, concentration 6561 nM): 19.2% | cell growth (cell viability) ([3]; concentration 3 nM, 0.003 µM): 95.3 and 96.1 | cell growth (cell viability) ([3]; concentration 9 nM, 0.009 µM): 88.8 and 89.7 | cell growth (cell viability) ([3]; concentration 27 nM, 0.027 µM): 72.5 and 70.1 | cell growth (cell viability) ([3]; concentration 81 nM, 0.081 µM): 53.2 and 52.8 | cell growth (cell viability) ([3]; concentration 243 nM, 0.243 µM): 47.7 and 51.0 | cell growth (cell viability) ([3]; concentration 729 nM, 0.729 µM): 47.1 and 48.7 | cell growth (cell viability) ([3]; concentration 2187 nM, 2.187 µM): 46.7 and 48.3 | cell growth (cell viability) ([3]; concentration 6561 nM, 6.561 µM): 25.2 and 26.5 | inhibition at 0.005 µM ([4]; CCD-1106, 0 h, calcipotriol 5 nM, blue light 0 h): 9% | inhibition at 0.02 µM ([4]; CCD-1106, 0 h, calcipotriol 20 nM, blue light 0 h): 24% | inhibition at 0.08 µM ([4]; CCD-1106, 0 h, calcipotriol 80 nM, blue light 0 h): 45% | inhibition at 0.32 µM ([4]; CCD-1106, 0 h, calcipotriol 320 nM, blue light 0 h): 48% | inhibition at 1.28 µM ([4]; CCD-1106, 0 h, calcipotriol 1,280 nM, blue light 0 h): 43% | inhibition at 0.005 µM ([4]; CCD-1106, 2 h, calcipotriol 5 nM, blue light 2 h): 32% | inhibition at 0.02 µM ([4]; CCD-1106, 2 h, calcipotriol 20 nM, blue light 2 h): 39% | inhibition at 0.08 µM ([4]; CCD-1106, 2 h, calcipotriol 80 nM, blue light 2 h): 55% | inhibition at 0.32 µM ([4]; CCD-1106, 2 h, calcipotriol 320 nM, blue light 2 h): 66% | inhibition at 1.28 µM ([4]; CCD-1106, 2 h, calcipotriol 1,280 nM, blue light 2 h): 62% | inhibition at 0.005 µM ([4]; CCD-1106, 4 h, calcipotriol 5 nM, blue light 4 h): 53% | inhibition at 0.02 µM ([4]; CCD-1106, 4 h, calcipotriol 20 nM, blue light 4 h): 58% | inhibition at 0.08 µM ([4]; CCD-1106, 4 h, calcipotriol 80 nM, blue light 4 h): 70% | inhibition at 0.32 µM ([4]; CCD-1106, 4 h, calcipotriol 320 nM, blue light 4 h): 71% | inhibition at 1.28 µM ([4]; CCD-1106, 4 h, calcipotriol 1,280 nM, blue light 4 h): 69% | inhibition at 0.005 µM ([4]; CCD-1106, 6 h, calcipotriol 5 nM, blue light 6 h): 56% | inhibition at 0.02 µM ([4]; CCD-1106, 6 h, calcipotriol 20 nM, blue light 6 h): 59% | inhibition at 0.08 µM ([4]; CCD-1106, 6 h, calcipotriol 80 nM, blue light 6 h): 71% | inhibition at 0.32 µM ([4]; CCD-1106, 6 h, calcipotriol 320 nM, blue light 6 h): 72% | inhibition at 1.28 µM ([4]; CCD-1106, 6 h, calcipotriol 1,280 nM, blue light 6 h): 66% | growth inhibition relative to untreated control ([4]; calcipotriol 5 nM, blue light 0 h): 6% | growth inhibition relative to untreated control ([4]; calcipotriol 5 nM, blue light 2 h): 33% | growth inhibition relative to untreated control ([4]; calcipotriol 5 nM, blue light 4 h): 47% | growth inhibition relative to untreated control ([4]; calcipotriol 5 nM, blue light 6 h): 51% | growth inhibition relative to untreated control ([4]; calcipotriol 20 nM, blue light 0 h): 17% | growth inhibition relative to untreated control ([4]; calcipotriol 20 nM, blue light 4 h): 52% | growth inhibition relative to untreated control ([4]; calcipotriol 80 nM, blue light 0 h): 35% | growth inhibition relative to untreated control ([4]; calcipotriol 80 nM, blue light 4 h): 64% | growth inhibition relative to untreated control ([4]; calcipotriol 80 nM, blue light 6 h): 67% | growth inhibition relative to untreated control ([4]; calcipotriol 320 nM, blue light 2 h): 60% | growth inhibition relative to untreated control ([4]; calcipotriol 320 nM, blue light 4 h): 67% | growth inhibition relative to untreated control ([4]; calcipotriol 1,280 nM, blue light 0 h): 37% | growth inhibition relative to untreated control ([4]; calcipotriol 1,280 nM, blue light 4 h): 63% | growth inhibition relative to untreated control ([4]; calcipotriol 1,280 nM, blue light 6 h): 67% | effect of blue light exposure with the drug on cell growth inhibition ([4]; for example 6 hours of blue light with 10 nm KX01): Synergistic effects
